Laboratory results as given in ChEMBL document CHEMBL1130231, “Betidamino acid scan of the GnRH antagonist acyline” (J Med Chem, 1997).
Activity calls are given as the source filed them. The rule behind the calls is not given here.

Legend:
Assay type in all cases: functional, organism-based
[1] = test system: Rattus norvegicus; experiment: Ratio of ovulated rats to total number of rats determined in a anti-ovulatory assay by administering 5 microg of compound; 1/8
[2] = test system: Rattus norvegicus; experiment: Ratio of ovulated rats to total number of rats determined in a anti-ovulatory assay by administering 10 ug of compound; 0/8
[3] = test system: Rattus norvegicus; experiment: Ratio of ovulated rats to total number of rats determined in a anti-ovulatory assay by administering 1 microg of compound; 1/8
[4] = test system: Rattus norvegicus; experiment: Ratio of ovulated rats to total number of rats determined in a anti-ovulatory assay by administering 2.5 microg of compound; 0/8

Compound	ov. rat/total [1]	ov. rat/total [2]	ov. rat/total [3]	ov. rat/total [4]
CC(=O)Nc1ccc(C[C@H](NC(=O)[C@H](CO)NC(=O)[C@H](Cc2cccnc2)NC(=O)[C@@H](Cc2ccc(Cl)cc2)NC(=O)[C@@H](Cc2ccc3ccccc3c2)NC(C)=O)C(=O)N[C@H](Cc2ccc(NC(C)=O)cc2)C(=O)N[C@@H](CC(C)C)C(=O)N[C@@H](CCCCNC(C)C)C(=O)N2CCC[C@@H]2C(=O)N[C@H](C)C(N)=O)cc1	Active	Active		
CC(=O)Nc1ccc(C[C@H](NC(=O)[C@H](CO)NC(=O)[C@@H](Cc2cccnc2)NC(=O)[C@@H](Cc2ccc(Cl)cc2)NC(=O)[C@@H](Cc2ccc3ccccc3c2)NC(C)=O)C(=O)N[C@H](Cc2ccc(NC(C)=O)cc2)C(=O)N[C@@H](CC(C)C)C(=O)N[C@@H](CCCCNC(C)C)C(=O)N2CCC[C@@H]2C(=O)N[C@H](C(N)=O)N(C)C=O)cc1			inactive	Active
